Several values for one entry are separate records, joined by “and”; a condition that tells them apart may be missing. Identical values can stand only once. Inconclusive results and toxic doses are left out.

This assay has as its system BDF1 mice, L1210 terephthalanilide-resistant leukemia ip, survival T/C. As to the kind of experiment: NCI In Vivo Anticancer Drug Screen. Data for tumor model L1210 Leukemia resistant to A Terephthalanilide; NSC 38280 (intraperitoneal) in B6D2F1 (BDF1) mice. The conditions noted are these: endpoint: mean survival time, higher = longer survival. Here is the method: The antitumor activity of compounds was measured in mice bearing transplantable tumors. Survival or tumor size were measured and the results are expressed as the measurement made in the treated group (T) divided by the measurement made in the vehicle treated control group (C). The tumor model used in this assay is L1210 Leukemia resistant to A Terephthalanilide; NSC 38280 (intraperitoneal) in B6D2F1 (BDF1) mice

Where [1] appears, read: dose: 4.0 mg/kg/injection, schedule: Q01DX010 (ip), vehicle: other.
Setting [2] is: dose: 8.0 mg/kg/injection, schedule: Q01DX010 (ip), vehicle: other.
[3] abbreviates: dose: 16.0 mg/kg/injection, schedule: Q01DX010 (ip), vehicle: other.
Setting [4] is: dose: 32.0 mg/kg/injection, schedule: Q01DX010 (ip), vehicle: other.
Setting [5] is: dose: 10.0 mg/kg/injection, schedule: Q01DX010 (ip), vehicle: saline.
[6] abbreviates: dose: 20.0 mg/kg/injection, schedule: Q01DX010 (ip), vehicle: saline.
[7] abbreviates: dose: 50.0 mg/kg/injection, schedule: Q01DX Z (ip), vehicle: carboxymethylcellulose (CMC).
Where [8] appears, read: dose: 3.13 mg/kg/injection, schedule: Q01DX010 (ip), vehicle: saline.
[9] abbreviates: dose: 6.25 mg/kg/injection, schedule: Q01DX010 (ip), vehicle: saline.
[10] abbreviates: dose: 12.5 mg/kg/injection, schedule: Q01DX010 (ip), vehicle: saline.
Where [11] appears, read: dose: 25.0 mg/kg/injection, schedule: Q01DX010 (ip), vehicle: saline.
[12] abbreviates: dose: 2.0 mg/kg/injection, schedule: Q01DX Z (ip), vehicle: carboxymethylcellulose (CMC).
[13] abbreviates: dose: 2.5 mg/kg/injection, schedule: Q01DX010 (ip), vehicle: saline.
[14] abbreviates: dose: 4.0 mg/kg/injection, schedule: Q01DX Z (ip), vehicle: carboxymethylcellulose (CMC).
Setting [15] is: dose: 5.0 mg/kg/injection, schedule: Q01DX010 (ip), vehicle: saline.
[16] abbreviates: dose: 25.0 mg/kg/injection, schedule: Q01DX Z (ip), vehicle: carboxymethylcellulose (CMC).
[17] abbreviates: dose: 62.5 mg/kg/injection, schedule: Q01DX010 (ip), vehicle: saline.
[18] abbreviates: dose: 100.0 mg/kg/injection, schedule: Q01DX Z (ip), vehicle: carboxymethylcellulose (CMC).
Where [19] appears, read: dose: 125.0 mg/kg/injection, schedule: Q01DX010 (ip), vehicle: saline.
Where [20] appears, read: dose: 50.0 mg/kg/injection, schedule: Q01DX010 (ip), vehicle: saline.

Regarding `N=C(N)c1ccc(Nc2ccc(C(=N)N)cc2)cc1`, the T/C reads like this: (dose: 3.0 mg/kg/injection, schedule: Q01DX010 (ip), vehicle: saline) 94 % of control; (dose: 6.0 mg/kg/injection, schedule: Q01DX010 (ip), vehicle: saline) 91 % of control; (dose: 7.5 mg/kg/injection, schedule: Q01DX Z (ip), vehicle: water) 95 % of control; (dose: 10.0 mg/kg/injection, schedule: Q01DX Z (ip), vehicle: water) 95 % of control; (dose: 12.0 mg/kg/injection, schedule: Q01DX010 (ip), vehicle: saline) 95 % of control; (dose: 15.0 mg/kg/injection, schedule: Q01DX Z (ip), vehicle: water) 95 % of control. Moreover, for the setting “dose: 20.0 mg/kg/injection, schedule: Q01DX Z (ip), vehicle: water”, the T/C is 103 % of control.

For `O=C(Nc1ccc(C2=NCCN2)cc1)c1ccc(C(=O)Nc2ccc(C3=NCCN3)cc2)cc1`, the T/C reads like this: under setting [1], 112 % of control and 115 % of control; under setting [2], 123 % of control and 114 % of control; under setting [3], 112 % of control and 117 % of control; under setting [4], 114 % of control and 117 % of control; (dose: 64.0 mg/kg/injection, schedule: Q01DX010 (ip), vehicle: other) 103 % of control and 110 % of control.

For the compound `Cn1c(N)nc2nc[nH]c2c1=S`, the T/C is 103 % of control under setting [5]; 111 % of control (dose: 16.0 mg/kg/injection, schedule: Q01DX Z (ip), vehicle: carboxymethylcellulose (CMC)); 93 % of control under setting [6]; 120 % of control (dose: 31.0 mg/kg/injection, schedule: Q01DX Z (ip), vehicle: carboxymethylcellulose (CMC)); 150 % of control (dose: 37.5 mg/kg/injection, schedule: Q01DX Z (ip), vehicle: carboxymethylcellulose (CMC)); 99 % of control (dose: 40.0 mg/kg/injection, schedule: Q01DX010 (ip), vehicle: saline). The T/C was 154 % of control under setting [7]; 119 % of control (dose: 75.0 mg/kg/injection, schedule: Q01DX Z (ip), vehicle: carboxymethylcellulose (CMC)); 100 % of control (dose: 80.0 mg/kg/injection, schedule: Q01DX010 (ip), vehicle: saline); 150 % of control (dose: 150.0 mg/kg/injection, schedule: Q01DX Z (ip), vehicle: carboxymethylcellulose (CMC)).

Take `CCCNc1ncnc2[nH]ncc12`: the T/C runs as follows: under setting [8], 92 % of control and 103 % of control; under setting [9], 96 % of control and 108 % of control; under setting [10], 95 % of control and 101 % of control; (dose: 12.5 mg/kg/injection, schedule: Q01DX Z (ip), vehicle: saline) 115 % of control; under setting [11], 92 % of control and 106 % of control; (dose: 50.0 mg/kg/injection, schedule: Q01DX Z (ip), vehicle: saline) 93 % of control.

`COc1cc(-c2ccc(Nc3ccccc3C(=O)O)c(OC)c2)ccc1Nc1ccccc1C(=O)O`: the T/C (dose: 67.0 mg/kg/injection, schedule: Q01DX010 (ip), vehicle: saline) is 150 % of control and 159 % of control.

For `C1CN1c1nc(N2CC2)nc(N2CC2)n1`, the T/C (dose: 0.13 mg/kg/injection, schedule: Q01DX010 (ip), vehicle: saline) is 108 % of control; the T/C (dose: 0.25 mg/kg/injection, schedule: Q01DX010 (ip), vehicle: saline) is 99 % of control; the T/C (dose: 0.5 mg/kg/injection, schedule: Q01DX010 (ip), vehicle: saline) was 104 % of control.

Consider `O=C(Nc1ccc(C2=NCCN2)cc1)c1ccc(C(=O)Nc2ccc(C3=NCCN3)cc2)c(Cl)c1`, for which the T/C runs as follows: (dose: 2.0 mg/kg/injection, schedule: Q01DX010 (ip), vehicle: other) 98 % of control and 100 % of control; under setting [1], 107 % of control and 110 % of control; under setting [2], 107 % of control and 117 % of control; under setting [3], 122 % of control and 107 % of control; under setting [4], 120 % of control and 112 % of control.

Turning to `NC(Cc1ccc(N(CCCl)CCCl)cc1)C(=O)O` (configuration not stated), the T/C by setting is: (dose: 0.31 mg/kg/injection, schedule: Q01DX Z (ip), vehicle: carboxymethylcellulose (CMC)) 113 % of control; (dose: 0.62 mg/kg/injection, schedule: Q01DX Z (ip), vehicle: carboxymethylcellulose (CMC)) 114 % of control; under setting [12], 174 % of control; under setting [13], 183 % of control; (dose: 2.5 mg/kg/injection, schedule: Q01DX Z (ip), vehicle: carboxymethylcellulose (CMC)) 162 % of control; under setting [14], 184 % of control. For the same compound, the T/C was 166 % of control under setting [15]; 212 % of control (dose: 5.0 mg/kg/injection, schedule: Q01DX Z (ip), vehicle: carboxymethylcellulose (CMC)); 172 % of control (dose: 7.5 mg/kg/injection, schedule: Q01DX Z (ip), vehicle: carboxymethylcellulose (CMC)); 181 % of control (dose: 10.0 mg/kg/injection, schedule: Q01DX Z (ip), vehicle: carboxymethylcellulose (CMC)); 120 % of control (dose: 15.0 mg/kg/injection, schedule: Q01DX Z (ip), vehicle: carboxymethylcellulose (CMC)).

Turning to `CCn1cnc2c(=S)nc[nH]c21`, the T/C reads like this: (dose: 15.6 mg/kg/injection, schedule: Q01DX010 (ip), vehicle: saline) 104 % of control; under setting [16], 113 % of control; (dose: 31.3 mg/kg/injection, schedule: Q01DX010 (ip), vehicle: saline) 106 % of control and 109 % of control; under setting [17], 95 % of control and 118 % of control; under setting [18], 155 % of control; under setting [19], 123 % of control and 106 % of control.

Turning to `OCC1OC(n2cnc3c(Cl)ncnc32)C(O)C1O` (configuration not stated), the T/C reads like this: under setting [17], 90 % of control and 99 % of control; under setting [19], 96 % of control and 101 % of control; (dose: 250.0 mg/kg/injection, schedule: Q01DX010 (ip), vehicle: saline) 97 % of control and 103 % of control; (dose: 500.0 mg/kg/injection, schedule: Q01DX010 (ip), vehicle: saline) 101 % of control and 106 % of control.

Regarding `CC[n+]1ccccc1-c1ccc(NC(=O)c2ccc(C(=O)Nc3ccc(-c4ccccn4)cc3)cc2)cc1`, the T/C is, setting by setting: under setting [13], 115 % of control; under setting [5], 119 % of control; under setting [6], 92 % of control.

Regarding `C#CCN(C)Cc1ccccc1`, the T/C by setting is: under setting [20], 91 % of control; (dose: 100.0 mg/kg/injection, schedule: Q01DX010 (ip), vehicle: saline) 102 % of control; (dose: 200.0 mg/kg/injection, schedule: Q01DX010 (ip), vehicle: saline) 93 % of control.

For `N[C@@H](Cc1ccc(N(CCCl)CCCl)cc1)C(=O)O`, the T/C under setting [12] was 252 % of control; the T/C under setting [14] was 155 % of control; the T/C (dose: 8.0 mg/kg/injection, schedule: Q01DX Z (ip), vehicle: carboxymethylcellulose (CMC)) is 187 % of control; the T/C (dose: 12.0 mg/kg/injection, schedule: Q01DX Z (ip), vehicle: carboxymethylcellulose (CMC)) is 169 % of control; the T/C (dose: 18.0 mg/kg/injection, schedule: Q01DX Z (ip), vehicle: carboxymethylcellulose (CMC)) is 91 % of control.

With `CC[n+]1c(-c2ccccc2)c2cc(N)ccc2c2ccc(N)cc21`, the T/C (dose: 1.25 mg/kg/injection, schedule: Q01DX010 (ip), vehicle: saline) was 100 % of control; the T/C under setting [13] is 90 % of control; the T/C under setting [15] was 101 % of control; the T/C under setting [5] is 95 % of control.

For `C[C@H]1C(=O)O[C@@H]2CCN3CC=C(COC(=O)[C@](C)(O)[C@@]1(C)O)[C@H]23`, the T/C under setting [8] was 97 % of control; the T/C under setting [9] is 102 % of control; the T/C under setting [10] is 97 % of control and 106 % of control; the T/C under setting [11] was 103 % of control and 106 % of control; the T/C under setting [16] is 107 % of control; the T/C under setting [20] is 100 % of control. Moreover, the T/C by setting is: under setting [7], 100 % of control; under setting [18], 119 % of control; (dose: 200.0 mg/kg/injection, schedule: Q01DX Z (ip), vehicle: carboxymethylcellulose (CMC)) 161 % of control.

(Values after PubChem BioAssay AID282 (DTP/NCI, 2004).)
